Measured values from patent publication US9115151B2, “Substituted 2,10-dihydro-9-oxa-1,2,4A-triazaphenanthren-3-ones and uses thereof” (AbbVie Inc., priority 2012, dated 2015).

What was measured:
[1] = biological target: T1, PKCθ (Homo sapiens, UniProt Q04759); assay: In vitro enzyme assay (time-resolved fluorescence kinase assay), PKCθ, 100 μM ATP; type: biochemical
T1 construct: His6; purchased Millipore; host or cells: baculovirus in Sf21 cells
Experimental: (§1) PKC kinase activity was assayed by time-resolved fluorescence in vitro kinase assay. Unless otherwise indicated, all reagents used for enzyme assays were obtained from Sigma. Specifically, 5 μL N- or C-terminal His6-tagged, recombinant, human PKC, expressed by baculovirus in Sf21 cells (Millipore) was mixed with 5 μL inhibitor (various concentrations, 5% final DMSO), 5 μL Bio-cdc peptide (Biotin-Ahx-[…], 2 μM final concentration, New England Peptide) and 5 μL of ATP (100 μM or 1000 μM final concentration) in 1× reaction buffer, 20 μL final volume.
(§2) Following a sixty minute incubation at room temperature, the reaction was quenched with 5 μL of 0.5 M EDTA pH 7.5.
(§3) Background counts from a minus enzyme control is subtracted from all data. Data (after background correction) are converted to percent activity by dividing by the signal obtained from PKC without drug sample.

[2] = test system: CD3/CD28 induced IL-2 in human T-Blasts; assay: T-Blasts CD3/CD28 induced IL-2 assay; type: cell-based; conditions: read-out: CD3/CD28-stimulated IL2 in T-blasts EC50
Experimental: T-Blasts CD3/CD28 Induced IL-2 Assay
Human T-Blasts are generated using PHA following standard protocols. T-Blasts are freeze aliquoted and vials thawed as required. […] Seed 2×10^5/100 μL cell suspension per well in flat bottomed 96 well plate. Compound dilutions are prepared from 100% DMSO stocks. A total of 8 serial dilutions are made (1/3 in 100% DMSO). Compounds are diluted 1/50 in growth medium to prepare 4× stocks of each tested concentration. 50 μL from each 4× stock concentration is added to the 100 μL cell suspension and incubated for 30 minutes prior stimulus addition. A 4× stimulus stock is prepared using anti-CD3+anti-CD28 antibodies. Antibody mix is added to the cell/compounds suspension in 50 μL at 5 μg/mL final concentration. Compounds are tested in duplicates. Plates are transferred to 37° C./CO2 incubator for 24 hours. After incubation 130 μL of supernatant is collected for IL-2 determination while MTT toxicity analysis is performed on remaining cells/medium.

[3] = biological target: T2, PKCα (Homo sapiens, UniProt P17252); assay: In vitro enzyme assay (time-resolved fluorescence kinase assay), PKCα, 100 μM ATP; type: biochemical; conditions: 100 μM ATP; read-out: PKCα enzyme IC50
T2 construct: His6; purchased Millipore; host or cells: baculovirus in Sf21 cells
Experimental: as §1, §2, §3

T1 sequence (Q04759 whole entry): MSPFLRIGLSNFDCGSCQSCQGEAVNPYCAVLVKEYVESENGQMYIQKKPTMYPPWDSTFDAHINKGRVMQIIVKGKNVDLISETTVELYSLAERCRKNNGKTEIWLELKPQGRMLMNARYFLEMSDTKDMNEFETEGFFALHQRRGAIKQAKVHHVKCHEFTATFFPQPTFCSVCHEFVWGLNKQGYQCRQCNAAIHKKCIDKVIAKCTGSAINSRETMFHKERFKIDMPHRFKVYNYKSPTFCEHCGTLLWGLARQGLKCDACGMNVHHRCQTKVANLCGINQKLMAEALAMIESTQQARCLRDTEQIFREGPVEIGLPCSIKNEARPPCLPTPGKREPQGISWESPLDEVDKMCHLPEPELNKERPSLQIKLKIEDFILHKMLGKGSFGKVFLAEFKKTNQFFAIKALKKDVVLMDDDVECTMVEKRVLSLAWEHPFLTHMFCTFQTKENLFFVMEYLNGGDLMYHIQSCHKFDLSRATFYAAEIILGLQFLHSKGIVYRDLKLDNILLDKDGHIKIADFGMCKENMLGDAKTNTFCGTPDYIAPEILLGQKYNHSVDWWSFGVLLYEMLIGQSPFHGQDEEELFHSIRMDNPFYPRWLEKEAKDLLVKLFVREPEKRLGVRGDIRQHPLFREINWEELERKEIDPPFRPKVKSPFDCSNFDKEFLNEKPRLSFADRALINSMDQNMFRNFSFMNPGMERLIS

| IC50 [1] | EC50 [2] | IC50 [3] | SMILES |
| --- | --- | --- | --- |
| < 250 nM | 250 to 1000 nM | 1000 to 10000 nM | CC1C(=O)NN=C2COc3ccc(C(C)C4(C)CNC4)cc3N21 (stereo not drawn) [Example 129, 1-Methyl-9-(1-(3-methylazetidin-3-yl)ethyl)-3,5-dihydrobenzo[5,6][1,4]oxazino[3,4-c][1,2,4]triazin-2(1H)-one trifluoroacetic acid] |
| < 250 nM | < 250 nM | 250 to 1000 nM | CC(C)c1cc2c(cc1[C@@H]1CCN(C)C[C@@H]1C)N1C(=NNC(=O)[C@H]1C)CO2 [Example 244] |
| < 250 nM | < 250 nM | 1000 to 10000 nM | CC1C(=O)NN=C2COc3cc(-c4ccccc4Cl)c(NC4CNC4)cc3N21 (racemic) [Example 44] |
| < 250 nM | < 250 nM | 1000 to 10000 nM | COc1cccc(-c2cc3c(cc2NC2CNC2)N2C(=NNC(=O)C2C)CO3)c1 (racemic) [Example 20] |
| 250 to 1000 nM | 1000 to 10000 nM | 1000 to 10000 nM | CC1CNCCC1c1ccc2c(c1)N1C(=NNC(=O)C1C)CO2 (stereo not drawn) [Example 73] |
| < 250 nM | < 250 nM | 1000 to 10000 nM | CC1C(=O)NN=C2COc3cc(F)c(OC4(C)CNC4)cc3N21 (stereo not drawn) [Example 80, 7-Fluoro-4-methyl-6-(3-methyl-azetidin-3-yloxy)-2,10-dihydro-9-oxa-1,2,4a-triaza-phenanthren-3-one trifluoroacetic acid] |
| 250 to 1000 nM | 1000 to 10000 nM | 1000 to 10000 nM | C[C@H]1C(=O)NN=C2COc3cc(C4CC4)c(NC4CNC4)cc3N21 (single isomer, unassigned) [Example 64-2, trifluoroacetic acid] |
| < 250 nM | 250 to 1000 nM | 1000 to 10000 nM | Cc1ccc(F)c(-c2cc3c(cc2NC2CNC2)N2C(=NNC(=O)C2C)CO3)c1 (racemic) [Example 31] |
| < 250 nM | < 250 nM | 250 to 1000 nM | CC1C(=O)NN=C2COc3cc(-c4ccc(F)cc4)c(N(C)C4(C)CN(C)C4)cc3N21 (stereo not drawn) [Example 168] |
| < 250 nM | < 250 nM | 250 to 1000 nM | C[C@@H]1C(=O)NN=C2COc3cc(-c4ccccc4F)c(N(C)[C@@]4(C)CCN(C)C4)cc3N21 (single isomer, unassigned) [Example 198-3] |
| < 250 nM | < 250 nM | 1000 to 10000 nM | CC1C(=O)NN=C2COc3cc(C4CC4)c(OC4CNC4)cc3N21 (stereo not drawn) [Example 65, 6-(Azetidin-3-yloxy)-7-cyclopropyl-4-methyl-2,10-dihydro-9-oxa-1,2,4a-triaza-phenanthren-3-one trifluoroacetic acid] |
| < 250 nM | < 250 nM | 1000 to 10000 nM | CC1C(=O)NN=C2COc3ccc(OC4(C)CNC4)cc3N21 (stereo not drawn) [Example 69, 4-Methyl-6-(3-methyl-azetidin-3-yloxy)-2,10-dihydro-9-oxa-1,2,4a-triaza-phenanthren-3-one trifluoroacetic acid] |
| 250 to 1000 nM | 1000 to 10000 nM | 1000 to 10000 nM | CC(C)c1cc2c(cc1NC1CNC1)N1C(=NNC(=O)[C@@H]1C)CO2 (single isomer, unassigned) [Example 57-2, trifluoroacetic acid] |
| < 250 nM | < 250 nM | 1000 to 10000 nM | Cc1cccc(-c2cc3c(cc2NC2CNC2)N2C(=NNC(=O)C2C)CO3)c1 (racemic) [Example 22] |
| < 250 nM | 250 to 1000 nM | 1000 to 10000 nM | CC1C(=O)NN=C2COc3cc(C4CCCC4)c(NC4CNC4)cc3N21 (stereo not drawn) [Example 60] |
| 250 to 1000 nM | 250 to 1000 nM | 1000 to 10000 nM | CC(C)c1cc2c(cc1C1CCNCC1)N1C(=NNC(=O)C1C)CO2 (stereo not drawn) [Example 76, 7-Isopropyl-4-methyl-6-piperidin-4-yl-2,10-dihydro-9-oxa-1,2,4a-triaza-phenanthren-3-one trifluoroacetic acid] |

| IC50 [1] | EC50 [2] | IC50 [3] | SMILES |
| --- | --- | --- | --- |
| < 250 nM | 250 to 1000 nM | 1000 to 10000 nM | Cc1cc2c(cc1NC1CNC1)N1C(=NNC(=O)[C@H]1C)CO2 (single isomer, unassigned) [Example 54-1, trifluoroacetic acid] |
| < 250 nM | < 250 nM | 250 to 1000 nM | CC1C(=O)NN=C2COc3cc(-c4ccccc4)c(N(C)C4(C)CN(C5CCOCC5)C4)cc3N21 (stereo not drawn) [Example 94] |
| < 250 nM | 250 to 1000 nM | 1000 to 10000 nM | CC1C(=O)NN=C2COc3cc(-c4ccc5ncsc5c4)c(NC4CNC4)cc3N21 (racemic) [Example 38] |
| < 250 nM | < 250 nM | < 250 nM | C[C@@H]1C(=O)NN=C2COc3cc(-c4ccccc4F)c(N4C[C@H](C)N(C)C[C@@H]4C)cc3N21 [Example 247] |
| < 250 nM | 250 to 1000 nM | 1000 to 10000 nM | C[C@@H]1C(=O)NN=C2COc3cc(C4=CCC(F)(F)CC4)c(N(C)C4(C)CN(C)C4)cc3N21 [Example 182] |
| < 250 nM | < 250 nM | 250 to 1000 nM | C[C@@H]1C(=O)NN=C2COc3cc(-c4ccccc4F)c(N(C)C4(C)CN(CC(C)(C)O)C4)cc3N21 [Example 190] |
| < 250 nM | < 250 nM | 1000 to 10000 nM | CC1C(=O)NN=C2COc3ccc(NC4(C(C)C)CNC4)cc3N21 (stereo not drawn) [Example 113, 9-((3-Isopropylazetidin-3-yl)amino)-1-methyl-3,5-dihydrobenzo[5,6][1,4]oxazino[3,4-c][1,2,4]triazin-2(1H)-one trifluoroacetic acid] |
| < 250 nM | 250 to 1000 nM | 1000 to 10000 nM | Cc1cc2c(cc1NC1CN(C)C1)N1C(=NNC(=O)C1C)CO2 (stereo not drawn) [Example 125, 1,8-Dimethyl-9-((1-methylazetidin-3-yl)amino)-3,5-dihydrobenzo[5,6][1,4]oxazino[3,4-c][1,2,4]triazin-2(1H)-one trifluoroacetic acid] |
| < 250 nM | 250 to 1000 nM | 1000 to 10000 nM | C[C@@H]1C(=O)NN=C2COc3cc([C@@H](C)C(F)(F)F)c(NC4CNC4)cc3N21 [Example 61] |
| < 250 nM | 250 to 1000 nM | 1000 to 10000 nM | C[C@@H]1C(=O)NN=C2COc3cc(-c4ccco4)c([C@@H](C)C4(C)CN(C)C4)cc3N21 [Example 136] |
| < 250 nM | < 250 nM | 250 to 1000 nM | C[C@@H]1C(=O)NN=C2COc3cc4ccn([C@H]5CCNC5)c4cc3N21 [Example 151-1, (R)-1-Methyl-10-(S)-pyrrolidin-3-yl-3,5-dihydro-10H-6-oxa-3,4,10,11b-tetraaza-cyclopenta[b]phenanthren-2-one hydrochloric acid] |
| 250 to 1000 nM | < 250 nM | 1000 to 10000 nM | CC1C(=O)NN=C2COc3cc(-c4ccc(OC(F)(F)F)cc4)c(NC4CNC4)cc3N21 (racemic) [Example 21] |
| < 250 nM | 250 to 1000 nM | 1000 to 10000 nM | C[C@@H]1C(=O)NN=C2COc3cc(-c4ccccc4F)c(N(C)C4(C)CN(C(=O)CO)C4)cc3N21 [Example 184] |
| < 250 nM | < 250 nM | 250 to 1000 nM | C[C@@H]1C(=O)NN=C2COc3cc(-c4ccccc4F)c(N4CCNC[C@@H]4C)cc3N21 [Example 224] |
| < 250 nM | < 250 nM | 250 to 1000 nM | CC[C@@H]1CN(C)CCN1c1cc2c(cc1-c1ccccc1F)OCC1=NNC(=O)[C@@H](C)N12 [Example 233] |
| < 250 nM | < 250 nM | 1000 to 10000 nM | C[C@@H]1C(=O)NN=C2COc3cc(-c4ccc(F)cc4F)c(NC4CNC4)cc3N21 [Example 4] |
